No end group written: not given here.
Assays:
CRF1 receptor (hCRF1α) = biological target: T1, CRF1 receptor (hCRF1α) (Homo sapiens, UniProt P34998); experiment: cAMP accumulation (LANCE) in Cos7 cells transfected with hCRF1α, agonist stimulation; type: cell-based
T1 construct: host or cells: Cos7 cells, transient transfection (PEI), pcDNA3.0/3.1 vector
T1 sequence (P34998 24-415): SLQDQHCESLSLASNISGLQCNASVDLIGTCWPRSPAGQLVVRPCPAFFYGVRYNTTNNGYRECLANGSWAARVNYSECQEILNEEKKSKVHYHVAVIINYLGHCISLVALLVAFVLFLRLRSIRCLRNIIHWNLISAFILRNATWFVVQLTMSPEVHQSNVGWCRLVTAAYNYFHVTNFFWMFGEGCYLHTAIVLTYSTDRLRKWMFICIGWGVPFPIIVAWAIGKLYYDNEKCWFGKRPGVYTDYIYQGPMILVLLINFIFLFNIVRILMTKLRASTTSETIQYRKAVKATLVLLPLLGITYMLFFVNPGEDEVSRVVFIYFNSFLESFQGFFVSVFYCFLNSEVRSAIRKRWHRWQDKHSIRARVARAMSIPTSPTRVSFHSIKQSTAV
Source text: (§1) Plasmids containing hCRF1α and hCRF2α (GenBank accession numbers AY457172 and AY449734) were obtained from the cDNA Resource Centre (Bloomsburg University) and are referred to as CRF1 and CRF2 in this manuscript. Hemagglutinin (HA) epitope‐tagged human Calcitonin (CT) receptor (CT(a) splice variant) and myc‐tagged human RAMP1 were used as described previously. ^27 HA‐tagged human calcitonin receptor‐like receptor (CLR), N‐terminal FLAG‐tagged human RAMP3 and N‐terminal myc‐tagged human RAMP3 were a gift from Professor David Poyner (Aston University) and Professor Patrick Sexton (Monash University), respectively. N‐terminal FLAG‐tagged human RAMP2 was used as described previously. ^28 All receptors and RAMPs were cloned in pcDNA3.0 or pcDNA3.1 plasmid vectors. All plasmid inserts were sequenced at the Centre for Genomics, Proteomics and Metabolomics (University of Auckland) and the sequences were verified prior to use.
Cos7, HEK‐293S, and HEK‐293T cells were cultured as described previously. ^28 , ^29 Cos7 cells were originally supplied by the ATCC to Associate Professor Nigel Birch (University of Auckland). HEK‐293S cells were a gift from Professor David Poyner (Aston University) and HEK‐293T cells a gift from Professor John Taylor (University of Auckland). Briefly, all cell lines were cultured in Dulbecco's Modified Eagle Medium (DMEM) supplemented with 8% heat inactivated fetal bovine serum (FBS) and maintained in a humidified incubator at 37°C with 5% CO2. For transfection, cells were counted (Countess CounterTM; Life Technologies) and plated at a density of 20 000 cells per well in 96‐well plates. The cells were transiently transfected 48 hours prior to assaying using polyethylenimine (PEI), as described previously. ^28 , ^29 In all experiments a total of 0.25 μg DNA was transfected per well. In the majority of experiments 0.25 μg DNA of receptor‐containing plasmid or the pcDNA3.1 plasmid without an insert was used. For experiments involving RAMPs, 0.125 μg of receptor DNA and 0.125 μg of RAMP‐containing plasmid DNA were transfected to give a 1:1 ratio of receptor to RAMP. […]
cAMP accumulation in Cos7 cells transfected with hCRF1α or hCRF2α receptors was measured using the LANCE cAMP detection assay kit (PerkinElmer Life and Analytical Sciences) as described previously. ^30 Briefly, culture media was removed and replaced with DMEM containing 0.1% bovine albumin serum (BSA) and 1 mmol/L 3‐isobutyl‐1‐methylxanthine (IBMX) for 30 minutes at 37°C. […] Samples were shaken for 15 minutes before 5 µL cell lysate was transferred to a white 384‐well optiplate and processed for cAMP quantification as described previously. ^31 Samples were read using an Envision plate reader (PerkinElmer). cAMP concentrations were determined from a standard curve generated in duplicate. […]

CRF2 receptor (hCRF2α) = biological target: T2, CRF2 receptor (hCRF2α) (Homo sapiens, UniProt Q13324); experiment: ERK1/2 phosphorylation (AlphaLISA Surefire Ultra) in Cos7 cells transfected with hCRF2α; type: cell-based
T2 construct: host or cells: Cos7 cells, transient transfection (PEI), pcDNA3.0/3.1 vector
T2 sequence (Q13324 1-411): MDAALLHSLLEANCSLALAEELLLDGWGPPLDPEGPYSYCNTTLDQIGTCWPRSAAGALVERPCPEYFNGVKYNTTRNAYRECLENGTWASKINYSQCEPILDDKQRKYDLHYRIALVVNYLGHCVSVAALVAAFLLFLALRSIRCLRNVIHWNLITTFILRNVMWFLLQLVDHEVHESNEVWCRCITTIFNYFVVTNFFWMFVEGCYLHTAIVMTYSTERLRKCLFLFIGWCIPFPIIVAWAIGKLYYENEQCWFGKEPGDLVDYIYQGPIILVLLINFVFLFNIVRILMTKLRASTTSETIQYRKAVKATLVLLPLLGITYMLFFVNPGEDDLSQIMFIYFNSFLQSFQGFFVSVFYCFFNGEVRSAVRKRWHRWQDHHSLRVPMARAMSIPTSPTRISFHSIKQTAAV
Source text: as §1
Cos7, HEK‐293S, and HEK‐293T cells were cultured as described previously. ^28 , ^29 Cos7 cells were originally supplied by the ATCC to Associate Professor Nigel Birch (University of Auckland). HEK‐293S cells were a gift from Professor David Poyner (Aston University) and HEK‐293T cells a gift from Professor John Taylor (University of Auckland). Briefly, all cell lines were cultured in Dulbecco's Modified Eagle Medium (DMEM) supplemented with 8% heat inactivated fetal bovine serum (FBS) and maintained in a humidified incubator at 37°C with 5% CO2. For transfection, cells were counted (Countess CounterTM; Life Technologies) and plated at a density of 20 000 cells per well in 96‐well plates. The cells were transiently transfected 48 hours prior to assaying using polyethylenimine (PEI), as described previously. ^28 , ^29 In all experiments a total of 0.25 μg DNA was transfected per well. In the majority of experiments 0.25 μg DNA of receptor‐containing plasmid or the pcDNA3.1 plasmid without an insert was used. For experiments involving RAMPs, 0.125 μg of receptor DNA and 0.125 μg of RAMP‐containing plasmid DNA were transfected to give a 1:1 ratio of receptor to RAMP. Where the RAMP or receptor were transfected alone, the ratio of DNA was made up with the pcDNA3.1 plasmid.
The AlphaLISA Surefire Ultra extracellular signal‐regulated kinase 1/2 (ERK1/2) phosphorylation (pERK1/2) assay kit (PerkinElmer Life and Analytical Sciences) was used to measure pERK1/2 in cell lysates after agonist stimulation. For these assays 20% FBS was used as a positive control. Following peptide stimulation at 37°C for 0‐30 minutes with 100 nmol/L agonist (time courses) or 7 minutes with media alone or 1 pmol/L to 1 µmol/L agonist, media was removed and 20 µL of lysis buffer added to each well. Plates were shaken at room temperature for 10 minutes. Each sample was then transferred to a 384‐well optiplate and pERK1/2 measurement performed as per the manufacturer's instructions. Samples were read using an Envision plate reader (PerkinElmer).
In all experiments the position of peptides and antagonists (pharmacology) or transfected receptors (ELISAs) on assay plates was randomized during each independent experiment, which are independent biological replicates. In all cases, duplicate, triplicate, or quadruplicate technical replicates were conducted for each independent experiment. For transfected cell experiments, each independent experiment involved plating cells from a distinct passage, separate transient transfection and separate signaling or ELISA assays, constituting experimental n. For ERK1/2 and IP1 signaling pathways, time‐course experiments were first conducted with a saturating concentration of UCN1 to determine the optimal time to conduct concentration‐response experiments. Concentration‐response experiments were then conducted with the same experimental design for cAMP, ERK1/2, and IP1 pathways. […] All group sizes were designed to be equal at n = 5 independent experiments.

ability to produce pERK1/2, comparison of peptides (CRF2 receptor (hCRF2α); CRF2 receptor) | concentration‐dependent increase in pERK1/2 (CRF2 receptor (hCRF2α); CRF2 receptor) | Hill slope (CRF2 receptor (hCRF2α); pERK1/2, CRF2 receptor) | Δlog(τ/K A) (relative efficacy) (CRF2 receptor (hCRF2α); pERK1/2, hCRF2α, reference agonist UCN1, mean ± SEM, n = 5) | ΔΔlog(τ/K A) (signaling bias) (CRF2 receptor (hCRF2α); pERK1/2 relative to cAMP, hCRF2α, reference agonist UCN1, mean ± SEM, n = 5) | EC50 (CRF1 receptor (hCRF1α); cAMP, hCRF1α, Cos7, 15 min at 37°C, 1 mmol/L IBMX, 1 pmol/L to 1 µmol/L agonist, mean ± SEM, n = 5) [nM] | EC50 (CRF2 receptor (hCRF2α); pERK1/2, hCRF2α, Cos7, 7 min at 37°C, 1 pmol/L to 1 µmol/L agonist, mean ± SEM, n = 5) [nM] | Substance | concentration‐dependent increase in cAMP (CRF1 receptor (hCRF1α); CRF1 receptor)
no significant difference | concentration‐dependent increases | 0.23 | −0.19 ± 0.42 | 0.36 ± 0.46 |  |  | IVLSLDVPIGLLQILLEQARARAAREQATTNARILARVGHC-NH2 (C-terminus assumed) [UCN2] | not UCN2 and UCN3 exhibited a concentration‐dependent increase
 |  |  |  |  | 0.107 | 5.62 | DNPSLSIDLTFHLLRTLLELARTQSQRERAEQNRIIFDSV-NH2 [UCN1] | 

From PMC7290078, “Agonist bias and agonist‐dependent antagonism at corticotrophin releasing factor receptors” (Pharmacology Research & Perspectives, 2020)
